Measurements from ChEMBL document CHEMBL4152334, “Synthesis, molecular docking and biological evaluation of novel phthaloyl derivatives of 3-amino-3-aryl propionic acids as inhibitors of Trypanosoma cruzi trans-sialidase” (2018).

Legend:
[1] = target: T1, Trans-sialidase (Trypanosoma cruzi) (UniProt Q26964); assay: Inhibition of Trypanosoma cruzi trans-sialidase at 1 mM assessed as reduction of 3'-sialyl-N-acetyllactosamine formation at 1 mM using N-acetyllactosamine as substrate and 3-sialyl-lactose as donor incubated for 15 mins by HPAEC-PAD relative to control
T1 sequence (whole entry): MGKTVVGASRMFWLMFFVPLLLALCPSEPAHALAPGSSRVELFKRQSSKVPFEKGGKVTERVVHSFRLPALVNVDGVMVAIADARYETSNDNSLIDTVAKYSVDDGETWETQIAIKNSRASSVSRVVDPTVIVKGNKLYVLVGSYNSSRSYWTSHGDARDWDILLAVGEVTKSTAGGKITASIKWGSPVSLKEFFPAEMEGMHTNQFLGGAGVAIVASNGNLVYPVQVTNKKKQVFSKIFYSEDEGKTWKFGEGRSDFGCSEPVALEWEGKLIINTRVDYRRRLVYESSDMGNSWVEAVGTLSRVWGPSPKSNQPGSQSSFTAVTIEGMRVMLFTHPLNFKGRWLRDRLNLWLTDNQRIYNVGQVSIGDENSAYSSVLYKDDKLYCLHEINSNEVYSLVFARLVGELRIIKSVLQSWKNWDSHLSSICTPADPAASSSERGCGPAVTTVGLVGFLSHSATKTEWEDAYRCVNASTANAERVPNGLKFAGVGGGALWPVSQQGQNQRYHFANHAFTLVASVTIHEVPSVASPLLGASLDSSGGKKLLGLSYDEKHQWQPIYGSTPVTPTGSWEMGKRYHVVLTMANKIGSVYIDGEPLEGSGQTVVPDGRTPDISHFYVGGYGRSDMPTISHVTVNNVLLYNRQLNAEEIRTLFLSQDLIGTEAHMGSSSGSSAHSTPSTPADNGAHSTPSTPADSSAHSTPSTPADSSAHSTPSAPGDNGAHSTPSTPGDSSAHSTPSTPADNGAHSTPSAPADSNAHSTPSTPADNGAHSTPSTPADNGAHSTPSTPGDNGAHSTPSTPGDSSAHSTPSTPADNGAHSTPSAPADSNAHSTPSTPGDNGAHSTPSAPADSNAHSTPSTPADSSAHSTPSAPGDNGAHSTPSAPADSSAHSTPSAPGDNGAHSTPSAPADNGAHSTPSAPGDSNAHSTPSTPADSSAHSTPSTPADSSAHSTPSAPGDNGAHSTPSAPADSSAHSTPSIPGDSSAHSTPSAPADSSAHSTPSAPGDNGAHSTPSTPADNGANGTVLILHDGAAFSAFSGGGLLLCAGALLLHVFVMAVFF

Trypanosoma cruzi [2] = assay: Trypanocidal activity against trypomastigote stage of Trypanosoma cruzi NINOA infected in NIH mouse blood assessed as parasite lysis at 10 ug/ml after 24 hrs by optical microscopic method relative to control; type: functional
Trypanosoma cruzi [3] = assay: Trypanocidal activity against trypomastigote stage of Trypanosoma cruzi NINOA infected in NIH mouse blood assessed as […] parasite lysis after 24 hrs by optical microscopic method; type: functional
Trypanosoma cruzi [4] = assay: Trypanocidal activity against trypomastigote stage of Trypanosoma cruzi INC-5 infected in NIH mouse blood assessed as parasite lysis at 10 ug/ml after 24 hrs by optical microscopic method relative to control; type: functional
Trypanosoma cruzi [5] = assay: Trypanocidal activity against trypomastigote stage of Trypanosoma cruzi INC-5 infected in NIH mouse blood assessed as parasite lysis after 24 hrs by optical microscopic method; type: functional; conditions: INC-5, Blood

## NC(CC(=O)O)c1ccc(O)cc1 (stereo not given)
[1]
  inhibition: 1.4%
Trypanosoma cruzi [2]
  Activity: 50%
Trypanosoma cruzi [3]
  LC50: 152 µM
Trypanosoma cruzi [4]
  Activity: 76%
Trypanosoma cruzi [5]
  LC50: 127 µM

## O=C(O)CC(c1ccco1)N1C(=O)c2ccc(C(=O)O)cc2C1=O (stereo not given)
[1]
  inhibition: 19.2%
Trypanosoma cruzi [2]
  Activity: 77%
Trypanosoma cruzi [3]
  LC50: 77.6 µM
Trypanosoma cruzi [4]
  Activity: 55%
Trypanosoma cruzi [5]
  LC50: 102 µM

## O=C(O)CC(c1ccc(O)cc1)N1C(=O)c2ccccc2C1=O (stereo not given)
[1]
  inhibition: 5.6%
Trypanosoma cruzi [2]
  Activity: 77%
Trypanosoma cruzi [3]
  LC50: 71.4 µM
Trypanosoma cruzi [4]
  Activity: 68%
Trypanosoma cruzi [5]
  LC50: 91 µM

## O=C(O)CC(c1ccc2ccccc2c1)N1C(=O)c2ccccc2C1=O (stereo not given)
[1]
  inhibition: 65.8%
Trypanosoma cruzi [2]
  Activity: 57%
Trypanosoma cruzi [3]
  LC50: 97.3 µM
Trypanosoma cruzi [4]
  Activity: 62%
Trypanosoma cruzi [5]
  LC50: 117 µM
